Data as given in US7829665B2 (priority 2005, dated 2010).
Where two headings read alike, the source gives them in different places.

Legend:
[1] = system: HCV sub-genomic replicon in GS4.3 cells (HuH-7 hepatoma cells); experiment: Quantitation by ELISA of Neomycin phosphotransferase II (NPTII) in the HCV sub-genomic replicon, GS4.3; assay type: cell-based, hepatitis C virus; details: Hepatitis C virus, Huh-7
How it was run: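 HuH-7 GS4.3 cells carrying HCV sub-genomic replicon 1377/NS3-3′, treated 72 h at 37 °C without G418 with 3-fold dilutions from 10 μM to 56 pM (1% DMSO). NPTII in cell lysates measured by direct ELISA with TMB readout at 450 nm. EC50 from 4-parameter fit of percent DMSO-control signal.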

[2] = biological target: T1, full-length NS3/NS4A-2 (HCV NS3 protease) (Hepatitis C virus genotype 1a, UniProt P27958); experiment: NS3-NS4 protease assay / NS3 inhibition assay (RETS1 substrate, fluorescence kinetic read); assay type: biochemical; details: recombinant E. coli or Baculovirus full-length NS3 with NS4A-2; read-out: NS3-NS4 IC50
T1 construct: Recombinant E. coli or Baculovirus full-length NS3 was diluted to 3.33 μM with assay buffer; made in house; host or cells: E. coli or baculovirus (BV) expression system
T1 sequence (P27958 1027-1657): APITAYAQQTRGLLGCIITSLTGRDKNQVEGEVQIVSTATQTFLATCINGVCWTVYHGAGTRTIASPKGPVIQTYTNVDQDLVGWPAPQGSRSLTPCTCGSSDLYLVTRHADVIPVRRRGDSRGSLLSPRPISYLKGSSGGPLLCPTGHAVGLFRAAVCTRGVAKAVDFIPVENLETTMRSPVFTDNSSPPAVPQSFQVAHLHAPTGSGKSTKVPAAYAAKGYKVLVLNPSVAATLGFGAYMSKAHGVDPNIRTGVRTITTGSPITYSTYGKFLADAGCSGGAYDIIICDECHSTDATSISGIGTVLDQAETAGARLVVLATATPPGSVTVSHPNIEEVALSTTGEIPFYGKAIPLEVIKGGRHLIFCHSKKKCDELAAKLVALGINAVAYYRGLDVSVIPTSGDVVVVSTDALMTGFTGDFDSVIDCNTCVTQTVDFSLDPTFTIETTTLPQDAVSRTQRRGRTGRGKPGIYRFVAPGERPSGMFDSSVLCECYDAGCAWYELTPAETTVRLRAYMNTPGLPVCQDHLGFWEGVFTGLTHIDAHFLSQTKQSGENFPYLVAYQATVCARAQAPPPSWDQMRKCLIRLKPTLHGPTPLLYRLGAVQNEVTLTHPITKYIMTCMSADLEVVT
How it was run: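 Full-length NS3 from E. coli (2 nM in assay) or baculovirus (3 nM) was precomplexed with excess NS4A-2 peptide, then preincubated 10 min at room temperature with serially diluted compounds starting at 50 microM. Reaction was started with RETS1 substrate at 8 μM before addition and read kinetically for 30 min (ex 335/em 495 nm). Four-parameter IC50s were converted to Ki by Cheng-Prusoff using Km 2.03 μM (E. coli) or 1.74 μM (BV).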

[3] = GS4.3 cells, 72 h incubation, NPTII ELISA, read-out: Replicon EC50

Row | Compound | EC50 [1, 3] | IC50 [2] | EC50 ([1]; Table 26, read-out: EC50)
1 | CC(C)(C)OC(=O)N[C@H]1CCCCC/C=C\[C@@H]2C[C@@]2(C(=O)NCCN2CCCCC2)NC(=O)[C@@H]2C[C@@H](OC(=O)N3Cc4cccc(F)c4C3)CN2C1=O [Compound 604] | > 10000 nM | > 10000 nM | –
2 | O=C(Cc1ccc(Cl)cc1)N[C@H]1CCCCC/C=C\[C@@H]2C[C@@]2(C(=O)NS(=O)(=O)C2CC2)NC(=O)C2CCCN2C1=O (some centres unmarked) [Compound 2143] | – | > 10000 nM | > 10000 nM
3 | CC(C)(C)OC(=O)N[C@H]1CCCCC/C=C\[C@@H]2C[C@@]2(C(=O)NS(=O)(=O)C2CC2)NC(=O)[C@@H]2C[C@@H](OC(=O)N3Cc4cccc(C(F)(F)F)c4C3)CN2C1=O [Compound 170] | < 100 nM | < 100 nM | –
4 | CC(C)(C)OC(=O)N[C@H]1CCCCC/C=C\[C@@H]2C[C@@]2(C(=O)N[C@H]2CCS(=O)(=O)C2)NC(=O)[C@@H]2C[C@@H](OC(=O)N3Cc4cccc(F)c4C3)CN2C1=O [Compound 634] | < 10000 nM | < 1000 nM | –
5 | CC(C)(C)OC(=O)N[C@H]1CCN(CC(F)(F)F)CC/C=C\[C@@H]2C[C@@]2(C(=O)NS(=O)(=O)C2CC2)NC(=O)[C@@H]2C[C@@H](OC(=O)N3Cc4cccc(F)c4C3)CN2C1=O [Compound 1032] | < 100 nM | < 100 nM | –
6 | CC(C)(CO)C(=O)N[C@H]1CCCCC/C=C\[C@@H]2C[C@@]2(C(=O)NS(=O)(=O)C2CC2)NC(=O)[C@@H]2C[C@@H](OC(=O)N3Cc4cccc(F)c4C3)CN2C1=O [Compound 254] | < 1000 nM | < 100 nM | –
7 | NC(=S)N[C@H]1CCCCC/C=C\[C@@H]2C[C@@]2(C(=O)NS(=O)(=O)C2CC2)NC(=O)[C@@H]2C[C@@H](OC(=O)N3Cc4cccc(F)c4C3)CN2C1=O [Compound 923] | < 1000 nM | < 100 nM | –
8 | CC(C)(C)OC(=O)N[C@H]1CCCCC/C=C\[C@@H]2C[C@@]2(C(=O)NS(=O)(=O)C2CC2)NC(=O)[C@@H]2C[C@@H](OC(=O)N3CCc4c(Cl)ccc(F)c4C3)CN2C1=O [Compound 260] | < 100 nM | < 100 nM | –
9 | O=C(N[C@H]1CCCCC/C=C\[C@@H]2C[C@@]2(C(=O)NS(=O)(=O)N2CC(F)(F)C2)NC(=O)C2C[C@@H](OC(=O)N3Cc4cccc(F)c4C3)CN2C1=O)OC1CCCC1 (some centres unmarked) [Compound 229] | < 1000 nM | < 100 nM | –
10 | CC(C)C(O)C(=O)N[C@H]1CCCCC/C=C\[C@@H]2C[C@@]2(C(=O)NS(=O)(=O)C2CC2)NC(=O)[C@@H]2C[C@@H](OC(=O)N3Cc4cccc(F)c4C3)CN2C1=O (some centres unmarked) [Compound 250] | < 1000 nM | < 100 nM | –
11 | CC(C)(C)OC(=O)N[C@H]1CCCOC/C=C\[C@@H]2C[C@@]2(C(=O)NCC2CC2)NC(=O)[C@@H]2C[C@@H](OC(=O)N3Cc4cccc(F)c4C3)CN2C1=O [Compound 1019] | < 1000 nM | < 100 nM | –
12 | N#CNC(=O)[C@@]12C[C@H]1/C=C\CCCCC[C@H](NC(=O)C1CC1)C(=O)N1C[C@H](OC(=O)N3Cc4cccc(F)c4C3)CC1C(=O)N2 (some centres unmarked) [Compound 638] | > 10000 nM | < 1000 nM | –
13 | CN(C)S(=O)(=O)NC(=O)[C@@]12C[C@H]1/C=C\CCC(F)(F)CC[C@H](NC(=O)OC(C)(C)C)C(=O)N1C[C@H](OC(=O)N3Cc4cccc(F)c4C3)C[C@H]1C(=O)N2 [Compound 1015] | < 100 nM | < 100 nM | –
14 | O=C(N[C@H]1CCCCC/C=C\[C@@H]2C[C@@]2(C(=O)NS(=O)(=O)N(CC(F)(F)F)CC(F)(F)F)NC(=O)[C@@H]2C[C@@H](OC(=O)N3Cc4cccc(F)c4C3)CN2C1=O)OC1CCCC1 [Compound 224] | < 10000 nM | < 1000 nM | –
15 | O=C(N[C@H]1CCCCC/C=C\[C@@H]2C[C@@]2(C(=O)NS(=O)(=O)N2CC(F)(F)C2)NC(=O)C2C[C@@H](OC(=O)N3Cc4ccccc4C3)CN2C1=O)OC1CCCC1 (some centres unmarked) [Compound 230] | < 1000 nM | < 100 nM | –
16 | O=C1N[C@]2(C(=O)NS(=O)(=O)C3CC3)C[C@H]2/C=C\CCCCC[C@H](Nc2nc(C(F)(F)F)cs2)C(=O)N2C[C@H](OC(=O)N3Cc4cccc(F)c4C3)C[C@@H]12 [Compound 926] | < 100 nM | < 100 nM | –
